The values that follow come from publication PMC8080777, “Discovery, optimization, and evaluation of non-bile acid FXR/TGR5 dual agonists” (Scientific Reports, 2021).

For this test, the system named is GLP-1. The test is described as follows: In vivo GLP-1 secretion after glucose challenge. Further details: species or system C57 mice. The note with it: for Plasma GLP-1 levels: single oral 100 mg/kg, overnight-fasted C57 mice, 2 g/kg glucose one hour later, blood 15 min after challenge. The protocol:
Measurement of GLP-1 secretion: To measure plasma GLP-1 levels, 100 mg/kg of compounds 20p and 20q were administered orally to overnight-fasted C57 mice (n = 5 animals/group). One hour later, all mice were challenged with 2 g/kg glucose, and blood samples were collected after 15 min of glucose challenge test. Plasma GLP-1 levels were measured using the GLP-1 ELISA Kit Wako, High Sensitive (FUJIFILM Wako Pure Chemical Corporation, Osaka city, Osaka, Japan)[56].
Amersham Place Little Chalfont Buckinghamshire, HP7 9NA UK), and cDNA was synthesized using ReverTra Ace qPCR RT Master Mix (Toyobo Co., Ltd., Osaka City, Osaka, Japan). Real-time PCR was performed using a CFX96 Touch Real-Time PCR Analysis System (CFX Manager, Bio-Rad, 1000 Alfred Nobel Drive, Hercules, CA, USA), and the mRNA expression levels of SHP and CYP7A1, the target gene s of FXR, were measured using the intercalator […]
In vivo assay protocol (GLP-1)
Measurement of GLP-1 secretion: To measure plasma GLP-1 levels, 100 mg/kg of compounds 20p and 20q were administered orally to overnight -fasted C57 mice (n=5 animals/group). One hour later, all mice were challenged with 2 g/kg glucose, and blood samples were collected after 15 min of glucose challenge test. Plasma GLP-1 levels were measured using the GLP-1 ELISA Kit Wako, High Sensitive (FUJIFILM Wako Pure Chemical Corporation, Osaka city, Osaka, […]
In vivo assay protocol (OGTT test)
To measure blood glucose levels, 100 mg/kg of test compounds 20p and 20q or vehicle were administered orally to overnight-fasted C57 mice (n=5 mice/group, control; n=10). One hour later, all mice were challenged with 2 g/kg glucose, and blood samples were collected after 15 min of glucose loading. The blood glucose levels were measured using LabAssay Glucose (FUJIFILM Wako Pure Chemical Corporation, Osaka City, Osaka, Japan).5
In vivo in-house animal guidelines
Study protocols were designed and refined by taking reduction of animal use into consideration. […]

In the case of `COc1cc(Cl)cc(N(CC23CCC(c4ccc(OC)c(C#N)c4)(CC2)CC3)C(=O)c2ccncc2C)c1` [Compound 20p], the “Plasma GLP-1 levels” value is on record as “significantly increased the plasma levels of GLP-1”. As to `COC(=O)/C=C/c1cccc(N(Cc2ccc(-c3ccc(N(C)C)cc3)cc2)C(=O)C2CCCCC2)c1` [Compound 7, Fexaramine, reference compound], the “Serum GLP-1” value (single dose, wild-type mice) is on record as “did not increase serum GLP-1”. With `COc1ccc(C23CCC(CN(C(=O)c4ccncc4C)c4cc(Cl)cc(Cl)c4)(CC2)CC3)cc1C#N` [Compound 20q], the “Plasma GLP-1 levels” value is reported as “significantly increased the plasma levels of GLP-1”.
